Laboratory results: BindingDB's records for doi:10.1124/mol.51.2.350 (Schering-Plough Research Institute, 1997)
Square brackets hold non-standard residues; d marks the D form. Peptide text beside a SMILES is read from it. * marks the point of attachment. Phe(4-F) = N[C@@H](Cc1ccc(F)cc1)C(=O)O; hArg = N=C(N)NCCCC[C@H](N)C(=O)O; Cha = N[C@@H](CC1CCCCC1)C(=O)O; X1 = CC(=O)C(Cc1ccccc1)N*

The compounds below were run against Prothrombin (Homo sapiens, UniProt P00734).

Going from `CC(C)C[C@H](NC(=O)CNC(=O)[C@H](CC(N)=O)NC(=O)[C@H](CCCCN)NC(=O)[C@H](CC(=O)O)NC(=O)[C@H](CO)NC(=O)[C@H](Cc1ccccc1)NC(=O)[C@H](CO)NC(=O)[C@H](CCCNC(=N)N)NC(=O)[C@H](Cc1cnc[nH]1)NC(=O)[C@H](CC(N)=O)NC(=O)CNC(=O)[C@@H](NC(=O)[C@H](C)NC(=O)[C@H](Cc1cnc[nH]1)NC(=O)[C@@H]1CCCN1C(=O)CNC(=O)[C@H](CC(C)C)NC(=O)[C@H](CC(C)C)NC(=O)[C@H](Cc1ccc(O)cc1)NC(=O)CNC(=O)[C@H](C)NC(=O)[C@H](CO)NC(=O)[C@H](CC(N)=O)NC(=O)[C@H](CC(C)C)NC(=O)[C@@H](NC(=O)[C@H](Cc1c[nH]c2ccccc12)NC(=O)CN)[C@@H](C)O)C(C)C)C(=O)N[C@H](C(=O)N[C@@H](CO)C(=O)O)[C@@H](C)O` [Galanin, Human] to `C[C@H](N)C(=O)N[C@@H](Cc1ccc(F)cc1)C(=O)N[C@@H](CCCN=C(N)N)C(=O)N[C@@H](CC1CCCCC1)C(=O)N[C@@H](CCCCN=C(N)N)C(=O)N[C@@H](Cc1ccccc1)C(N)=O` [L-Ala-4-Fluoro-L-Phe-L-Arg-3-cyclohexyl-L-Ala-N-amidino-L-Lys-L-Phe-NH2] (H-A[Phe(4-F)]R[Cha][hArg]F-NH2), the Ki falls from over 10 µM to 0.024 µM. The second binds more tightly here.

First: CSCCC(NC(=O)C(CC(C)C)NC(=O)CNC(=O)C(NC(=O)C(Cc1ccccc1)NC(=O)C(CO)NC(=O)C(CC(=O)O)NC(=O)C(NC(=O)C(CCCCN)NC(=O)C(N)Cc1cnc[nH]1)C(C)O)C(C)C)C(N)=O (stereo not drawn) [Neurokinin alpha]
Second: CC(C)CC(NC(=O)C(Cc1ccccc1)NC(=O)C(N)CO)C(=O)NC(CC(C)C)C(=O)NC(CCCN=C(N)N)C(=O)NC(CC(N)=O)C(=O)N1CCCC1C(=O)NC(CC(N)=O)C(=O)NC(CC(=O)O)C(=O)NC(CCCCN)C(=O)NC(Cc1ccc(O)cc1)C(=O)NC(CCC(=O)O)C(=O)N1CCCC1C(=O)NC(Cc1ccccc1)C(=O)O (centres undefined) [SFLLRNPNDKYEPF-OH] (H-SFLLRNPNDKYEPF-OH; configuration not given here)
The Ki of the first is higher: over 10 µM for the first, 1.1 µM for the second.

`CCC(C)C(NC(=O)C(Cc1ccc(O)cc1)NC(=O)C(NC(=O)C(CCCN=C(N)N)NC(=O)C(N)CC(=O)O)C(C)C)C(=O)NC(Cc1cnc[nH]1)C(=O)NC(Cc1cnc[nH]1)C(=O)N1CCCC1C(=O)NC(Cc1ccccc1)C(C)=O` (centres undefined) [NSC_439662] (H-DRVYIHHP-X1; configuration not given here) and `CC(=O)O[C@]1(C(C)=O)CC[C@H]2[C@@H]3C[C@H](C)C4=CC(=O)CC[C@]4(C)C3CC[C@@]21C` (some centres undefined) cannot be ordered by Ki: over 10 µM for the first, over 10 µM for the second.

`NC(N)=NCCCC(N)C(=O)N1CCCC1C(=O)N1CCCC1C(=O)NCC(=O)NC(Cc1ccccc1)C(=O)NC(CO)C(=O)N1CCCC1C(=O)NC(Cc1ccccc1)C(=O)O` (centres undefined) [CAS_58-82-2] and `CCC(C)C(NC(=O)C(CO)NC(=O)C(CC(N)=O)NC(=O)C(CC(C)C)NC(=O)C(Cc1ccc(O)cc1)NC(=O)C(CCCCN)NC(=O)C(CCCCN)NC(=O)C(NC(=O)C(C)NC(=O)C(CCSC)NC(=O)C(CCC(N)=O)NC(=O)C(CCCCN)NC(=O)C(CCCN=C(N)N)NC(=O)C(CC(C)C)NC(=O)C(CCCN=C(N)N)NC(=O)C(NC(=O)C(Cc1ccc(O)cc1)NC(=O)C(CC(N)=O)NC(=O)C(CC(=O)O)NC(=O)C(NC(=O)C(Cc1ccccc1)NC(=O)C(NC(=O)C(C)NC(=O)C(CC(=O)O)NC(=O)C(CO)NC(=O)C(N)Cc1cnc[nH]1)C(C)C)C(C)O)C(C)O)C(C)C)C(=O)NC(CC(C)C)C(=O)NC(CC(N)=O)C(=O)O` (centres undefined) [CAS_37221-79-7] cannot be ordered by Ki: over 10 µM for the first, over 10 µM for the second.

`CSCC[C@H](NC(=O)[C@H](CC(C)C)NC(=O)CNC(=O)[C@H](Cc1ccccc1)NC(=O)[C@H](Cc1ccccc1)NC(=O)[C@H](CCC(N)=O)NC(=O)[C@H](CCC(N)=O)NC(=O)[C@@H]1CCCN1C(=O)[C@H](CCCCN)NC(=O)[C@@H]1CCCN1C(=O)[C@@H](N)CCCN=C(N)N)C(N)=O` [Arg-Pro-Lys-Pro-Gln-Gln-Phe-Phe-Gly-Leu-Met NH2] and H-FSLLRN-NH2 [FSLLRN-NH2] cannot be ordered by Ki: over 10 µM for the first, over 10 µM for the second.

H-SLIGKV-NH2 [CAS_190383-13-2] and `CC(C)C[C@H](NC(=O)[C@H](CC(C)C)NC(=O)[C@H](Cc1ccccc1)NC(=O)[C@@H](N)CO)C(=O)N[C@@H](CCCN=C(N)N)C(=O)O` [SFLLR-OH] cannot be ordered by Ki: over 10 µM for the first, over 10 µM for the second.

Compared with `CC(C)C[C@H](NC(=O)[C@H](CC(C)C)NC(=O)[C@H](Cc1ccccc1)NC(=O)[C@@H](N)CO)C(=O)N[C@@H](CCCN=C(N)N)C(=O)N[C@@H](CC(N)=O)C(=O)O` [SFLLRN-OH], `CC(C)C[C@H](NC(=O)[C@H](CC(C)C)NC(=O)[C@H](Cc1ccccc1)NC(=O)[C@@H](N)CO)C(=O)N[C@@H](CCCN=C(N)N)C(=O)N[C@@H](CC(N)=O)C(N)=O` [CAS_141923-40-2] is 3.2-fold lower in Ki: 0.54 µM for the first, 0.168 µM for the second.
